From patent US5767068A, “Pure biologically active colistin, its components and a colistin formulation for treatment of pulmonary infections” (Pathogenesis Corporation, priority 1997, dated 1998)

Tests used:
[1] = test system: Pseudomonas aeruginosa; experiment: Time kill kinetic study of bactericidal activity; format: cell-based
Method: Comparison of anti-Pseudomonas aeruginosa activities of colimycin and colistin hydrochloride was performed using time kill kinetic studies as described in Antimicrobial Susceptibility Testing, Section 5.16.: Tests to assess bactericidal activity, Clinical Microbiology Procedure Handbook, Ed. Henry D. Isenberg, ASM, Washington, DC (1992). The exact procedure is described in Example 14.
Briefly, tests were similar to those used for determining MICs, except that the final test volume was larger (10 mL) to allow sampling at various time points. Parenteral colimycin was freshly diluted immediately before testing. Cultures were incubated at 37° C. At initial set-up and at various time-points, cultures were plated, with or without further dilution, onto sheep blood agar plates. Plates were incubated for 18-24 hours, and the number of CFU/mL was determined and plotted to determine the percentage of surviving organisms and the time required to achieve 99.9% killing. Results are seen in FIG. 15.
In this study, Pseudomonas aeruginosa organisms were exposed to varying concentrations of colistin or colimycin as indicated in FIG. 15. Concentrations of colimycin were between 8-64 μg/ml. Concentrations of colistin component IV hydrochloride were 0.25 and 0.5 μg/ml, that is 32-256 (for 0.25 μg/ml) and 16-128 (for 0.5 μg/ml) times lower that concentrations of colimycin. Colony-forming unit (CFU) per ml were determined and plotted against drug exposure time in hours.
Time kill kinetic studies were performed as described in (Antimicrobial Susceptibility Testing, Section 5.16. Tests to assess bactericidal activity, in Clinical Microbiology Procedure Handbook (supra).
Tests were set in the same way used for determining MICs (Example 13), except that the final test volume was larger (10 mL) to allow sampling at various time points. Cultures were incubated at 37° C. At initial set-up and at various desired time-points, cultures were sampled and plated (with or without further dilution) onto sheep blood agar plates. Plates were incubated for 18-24 hours, and the number of CFU/mL was determined and plotted to determine the percentage of surviving organisms and the time required to achieve 99.9% killing.

[2] = pH of freshly dissolved colimycin solutions over time; format: physicochemical; conditions: 10.0, 15.0 and 20.0 mg/ml in water, all cases
Method: Acidic stability of the colimycin solution was determined according to Example 11. Briefly, colimycin (405 mg) was freshly dissolved in water to achieve 10.0 mg/ml, 15.0 mg/ml, and 20.0 mg/ml solutions. These values correspond to concentrations of 3.7 mg/ml, 5.6 mg/ml and 7.4 mg/ml colistin base equivalent. Solution pH was monitored continuously at various times from 1 minute to 180 minutes and pH values and times were recorded.
The pH of freshly dissolved colimycin was determined by weighing a freshly opened vial of Coly-Mycin M Parenteral, Parke-Davis, lot# 01966P, containing 405 mg into 20 ml glass screwcap scintillation vials and adding an appropriate volume of sterile irrigation water to achieve 10.0 mg/ml, 15.0 mg/ml, and 20.0 mg/ml solutions. These values correspond to concentrations of 3.7 mg/ml, 5.6 mg/ml and 7.4 mg/ml colistin base equivalent. Solution pH was then monitored continuously using a Beckman Phi-10 pH meter fitted with a Beckman Futura Plus combination electrode calibrated at pH 4.0 and 7.0 as per manufacturer's instructions prior to use. At various times from 1 minute to 180 minutes, pH values and times were recorded.

[3] = Jet nebulization (Pari LC Jet) with laser diffraction aerosol characterization; format: physicochemical; conditions: Pari LC Jet nebulizer, n=3
Method: Colimycin was freshly dissolved in 37.5 mM NaCl at a concentration of 20 mg/ml colistin base equivalent immediately prior to nebulization. Colistin component IV sulfate was dissolved in 120 mM sodium chloride, and the pH was adjusted to 7.0 with 1 molar sodium hydroxide.
Four ml of solution to be nebulized was placed in a Pari LC Jet nebulizer fitted with a Pulmonaide Compressor (DeVilbiss Model 5650D) with an air flow rate of 4-6 liters/minute. Aerosols generated are characterized by passing through a laser diffraction particle analyzer (Malvern Mastersizer X). Each formulation was analyzed multiple times to determine reproducibility of results, which were expressed as total obscuration time, mass median average diameter, and respirable fraction.
In order to characterize colistin aerosols, and to investigate differences between the colimycin and colistin aerosol formulations, comparisons of the aerosolization of 150 mM (isotonic) NaCl alone, 20 mg/ml colistin component IV sulfate in 120 mM or 20 mg/ml colimycin in […] NaCl were made. Results are shown in FIG. 18, which is a comparison of the times required for aerosolization of 4 mL of the three solutions. The two drug solutions were analyzed three times, and saline was analyzed four times. Bars show standard deviations of measurements.
Colimycin was freshly dissolved in 37.5 mM […] NaCl at a concentration of 20 mg (colistin base equivalents)/ml solution immediately prior to nebulization. […]
Four ml of solution to be nebulized was placed in a Pari LC Jet nebulizer fitted with a Pulmonaide Compressor, DeVilbiss Model 5650D, with an air flow rate of 4-6 liters/minute. […] Each formulation was analyzed multiple times to determine reproducibility of results, which were expressed as total obscuration time, mass median particle diameter, and respirable fraction.
Mass median particle diameters were expressed as average ±standard deviation (n) for aerosols.
Average respirable fractions were calculated as average percentage of particles ranging from 1 micron to 6 microns in diameter within the aerosol over time.

[4] = 2,000,000 units nebulized; cited from earlier work
[5] = systemic intravenous, acute pulmonary exacerbation; cited from earlier work
[6] = in situ in the recipient patient body; cited from earlier work
[7] = test system: Pseudomonas aeruginosa; conditions: cited from earlier work
[8] = 20 mg/ml, average±standard deviation

| Compound | eradication of Pseudomonas aeruginosa organism ([1]; 8 μg/mL, 4 hours of testing) | killing of test organism ([1]; 16 μg/mL, at 3 hours) | time at which over 5 logs killing was shown ([1]; 64 μg/mL) | concentration required for similar level of killing (over 5 logs within 2 hours) ([1]; freshly dissolved) | pH of solution within 3 minutes [2] | average respirable fraction (particles from 1 micron to 6 microns) [3, 8] | mass median particle diameter of the aerosol [3, 8] | aerosolization time ([3]; 4 mL of 20 mg/ml solution, mean) | patients reporting chest tightness (bronchoconstriction response) [4] | cases with nephrotoxicity symptoms [5] | cases with neurotoxicity symptoms [5] | drug converted to colistin in an hour [6] | strains of Pseudomonas aeruginosa sensitive to treatment [7] |
| --- | --- | --- | --- | --- | --- | --- | --- | --- | --- | --- | --- | --- | --- |
| colimycin | did not, even at 4 hours of testing, eradicate | over 5 logs | 1.5 hours | 32 μg/ml | > 7.5 | 58.77±2.03 percentage | 4.11±0.29 microns | 10.53 min | approximately 65% | about 5% | about 29% | ~3% | – |
| NC[C@H]1O[C@H](O[C@H]2[C@H](O)[C@@H](O[C@H]3O[C@H](CO)[C@@H](O)[C@H](N)[C@H]3O)[C@H](N)C[C@@H]2N)[C@H](N)C[C@@H]1O [tobramycin] | – | – | – | – | – | – | – | – | – | – | – | – | about 90% |
